Series [1] concerns Candida albicans ATCC 24433 IHEM 10284. Nature of the series: microbe, parasite or virus in culture. It is filed as cell-based. The note with it: ATCC24433, negative control = 100, read-out: % of growth at a dose of 25 PPM compared to the negative control, Candida albicans ATCC 24433 IHEM 10284.
For series [2], the system named is HSV-2 (G). Nature of the series: HSV-2 (G)-induced cytopathicity in human embryo fibroblast E6SM. Type of series: cell-based, Herpes Simplex Virus. The following applies: Human alphaherpesvirus 2.
In series [3] the test system is E. coli ATCC 25922. The experiment in a line: microbe, parasite or virus in culture. Type of series: cell-based. The note with it: Escherichia coli, ATCC25922, negative control = 100, read-out: % of growth at 25 PPM compared to negative control, E. coli ATCC 25922.
The subject of series [4] is HSV-1 (KOS). The experiment in a line: HSV-1 (KOS)-induced cytopathicity in human embryo fibroblast E6SM. It is filed as cell-based, Herpes Simplex Virus. The note with it: Human alphaherpesvirus 1. On the technique in general: Damage to the host cells serves as the signal in cytopathic effect assays.
The test system of series [5] is HIV-2 (ROD). The experiment in a line: HIV-2 (ROD)-induced cytopathicity in human CEM cell cultures. It is filed as cell-based. The note with it: Human immunodeficiency virus 2, CCRF-CEM.
In series [6] the test system is S. aureus ATCC 29213 LMG 10147. Nature of the series: microbe, parasite or virus in culture. Type of series: cell-based. The following applies: Staphylococcus aureus, negative control = 100, read-out: % of growth at 25 PPM compared to negative control, S. aureus ATCC 29213 LMG 10147.
In series [7] the test system is E. faecalis ATCC 29212 LMG 8222. Nature of the series: microbe, parasite or virus in culture. Type of series: cell-based. The note with it: Enterococcus faecalis, negative control = 100, read-out: % of growth at 25 PPM compared to negative control, E. faecalis ATCC 29212 LMG 8222.
Series [8] concerns CMV David Strain. Nature of the series: CMV plaque formation in HEL cells, David strain. It is filed as cell-based, human Cytomegalovirus. The note with it: Human betaherpesvirus 5, virus plaque formation, virus input 100 PFU.
The subject of series [9] is C. neoformans ATCC 90112 IHEM 9558. Nature of the series: microbe, parasite or virus in culture. It is filed as cell-based. The note with it: Cryptococcus neoformans, ATCC90112, negative control = 100, read-out: % of growth at a dose of 25 PPM compared to the negative control, C. neoformans ATCC 90112 IHEM 9558.
Series [10] relates to T. mentagrophytes ATCC 9233 IHEM 10342. Nature of the series: microbe, parasite or virus in culture. It is filed as cell-based. The note with it: Trichophyton mentagrophytes, ATCC9233, negative control = 100, read-out: % of growth at a dose of 25 PPM compared to the negative control, T. mentagrophytes ATCC 9233 IHEM 10342.
The test system of series [11] is human T-lymphocyte cells (Molt4/C8). Nature of the series: Inhibition of proliferation of human T-lymphocyte cells Molt4/C8. The following applies: cytostatic activity, 50% inhibitory concentration. Type of series: cell-based. How it is done:
(§1) The compounds were tested for antitumor activity via the inhibitory effects on the proliferation of murine leukemia cells (L1210/0), murine mammary carcinoma cells (FM3A) and human T-lymphocyte cells (Molt4/C8), (CEM/0). […] Compound A1 and Compound A4 show no effect at concentrations up to 200 ppm.

The subject of series [12] is A. fumigatus IHEM 2895. Nature of the series: microbe, parasite or virus in culture. Type of series: cell-based. The following applies: Aspergillus fumigatus, IHEM2895, negative control = 100, read-out: % of growth at a dose of 25 PPM compared to the negative control, A. fumigatus IHEM 2895.
In series [13] the test system is HIV-1 (IIIB). Nature of the series: microbe, parasite or virus in culture. It is filed as cell-based. The following applies: Human immunodeficiency virus 1, IIIB, CCRF-CEM; HIV-induced cytopathicity in human CEM cell cultures.
Series [14] has as its system VV. Nature of the series: VV-induced cytopathicity in human embryo fibroblast E6SM. Type of series: cell-based, Vaccinia Virus. The note with it: Orthopoxvirus vaccinia, E6SM, read-out: EC50 VV (E6SM).
Series [15] deals with murine leukemia cells (L1210/0). Nature of the series: Inhibition of proliferation of murine leukemia cells L1210/0. Type of series: cell-based. How it is done:
as §1

Series [16] concerns VZV 07/1. The experiment in a line: microbe, parasite or virus in culture. Type of series: cell-based, Varicella Zoster Virus. The following applies: Human alphaherpesvirus 3, HEL, read-out: EC50 VZV (HEL) 07/1.
Series [17] relates to P. aeruginosa ATCC 27853 LMG 16217. The experiment in a line: microbe, parasite or virus in culture. Type of series: cell-based. The note with it: Pseudomonas aeruginosa, negative control = 100, read-out: % of growth at 25 PPM compared to negative control, P. aeruginosa ATCC 27853 LMG 16217.
Series [18] deals with murine mammary carcinoma cells (FM3A). The experiment in a line: Inhibition of proliferation of murine mammary carcinoma cells FM3A. The note with it: Mus musculus, cytostatic activity, 50% inhibitory concentration, read-out: IC50 FM3A/0. It is filed as cell-based. How it is done: as §1
The subject of series [19] is human T-lymphocyte cells (CEM/0). The experiment in a line: Inhibition of proliferation of human T-lymphocyte cells CEM/0. It is filed as cell-based. The following applies: CCRF-CEM, cytostatic activity, 50% inhibitory concentration. How it is done:
as §1

Series [20] has as its system VZV OKA. The experiment in a line: microbe, parasite or virus in culture. It is filed as cell-based, Varicella Zoster Virus. The note with it: Human alphaherpesvirus 3, HEL, read-out: EC50 VZV (HEL) OKA.
In series [21] the test system is CMV AD-169 Strain. The experiment in a line: CMV plaque formation in HEL cells, AD-169 strain. It is filed as cell-based, human Cytomegalovirus. The note with it: Human betaherpesvirus 5, AD169; virus plaque formation, HEL cells; virus input 100 PFU.

Bounds are passed on as bounds.

A word on the melting point: it is the temperature of the solid-liquid transition.

For `OC[C@H]1O[C@@H](c2ccccc2)[C@H](O)[C@@H]1O` [Compound A1, β-D-1-Deoxy-1-phenyl-ribofuranose], the melting point worked out at 118 °C. Besides, the activity at 25 ppm in [1] was 89.2%. The compound further showed an EC50 in series [2] above 400 µg/mL. In addition, the activity at 25 ppm in [3] was found to be 93.4%. The EC50 in [4] is above 400 µg/mL. Further, the EC50 in [5] is above 100 µg/mL. The activity at 25 ppm in series [6] was determined as 96.7%. The activity at 25 ppm in series [7] came out at 96%. In addition, the IC50 in series [8] is above 50 µg/mL. Moreover, the activity at 25 ppm in [9] turned out to be 93.3%. In addition, the activity at 25 ppm in series [10] is 62.4%. The same compound gave an IC50 in series [11] above 200 µg/mL. Further, in series [12], the activity at 25 ppm turned out to be 106%. In series [13], this compound showed an EC50 above 100 µg/mL. The EC50 in [14] is above 400 µg/mL. Moreover, the IC50 in series [15] (Mus musculus, L1210/0, read-out: IC50 L1210/0) was above 200 µg/mL. Further, the “effect on cell proliferation (in words)” value in series [15] (at concentrations up to 200 ppm, L1210/0, FM3A, Molt4/C8, CEM/0) is “no effect”. Further, the EC50 in series [16] is above 50 µg/mL. For the same compound, in series [17], the activity at 25 ppm was determined as 92.7%. Besides, the IC50 in series [18] was above 200 µg/mL. The same compound displayed an IC50 in [19] above 200 µg/mL. Besides, in series [20], the EC50 was above 50 µg/mL. Besides, the IC50 in series [21] was above 50 µg/mL.

Source of the values: patent US7368475B2, “Furanose-type bicyclic carbohydrates with biological activity” (Kemin Pharma BVBA, priority 2003, dated 2008).
